The conditions of the series: 30% by weight aqueous PLG-PEG diblock copolymer solutions or gels, 120 days, 5 °C and 37 °C.

The source of these data is patent US20060034889A1, “Biodegradable diblock copolymers having reverse thermal gelation properties and methods of use thereof” (MacroMed, Inc., priority 2004, published 2006).

Consider `CC(=O)O[C@H]1C(=O)[C@@]2(C)[C@H]([C@H](OC(=O)c3ccccc3)[C@]3(O)C[C@H](OC(=O)[C@H](O)[C@@H](NC(=O)c4ccccc4)c4ccccc4)C(C)=C1C3(C)C)[C@]1(OC(C)=O)CO[C@@H]1C[C@@H]2O` [paclitaxel], for which the “drug intact after storage” value is on record as “greater than 85%”.
